The values below come from US20090076044A1, “VEGFR INHIBITORS CONTAINING A ZINC BINDING MOIETY” (priority 2007, published 2009).

The target of assay [1] is T1, human c-Met (Homo sapiens, UniProt P08581).
T1 construct: recombinant human catalytic domain (amino acids 956-1390); His; host or cells: insect cells
The assay can be described thus: c-Met radioisotope kinase assay. The class given is biochemical. As to conditions: 1 μM ATP. On the procedure: (c) An In Vitro Assay which Determines the Ability of a Test Compound to Inhibit c-MET Enzymatic Activity.
For c-Met assay, p33 ATP tracers were incubated with purified recombinant c-Met kinase to monitor the enzyme activity. C-Met (Accession number: GenBank NP_000236.2) is characterized as follows: recombinant human catalytic domain (amino acids 956-1390) with histidine-tagged, expressed in insect cells. Purity≧90% by SDS-PAGE and Coomassie blue staining. MW=53.7 kDa. Specific Activity of 373 nmole of phosphate transferred to myelin basic protein (MBP) per minute per mg of total protein at 30° C. Activity determined at a final protein concentration of 2 μg/mL. Enzyme at 0.41 mg/ml in 20 mM Tris (pH 7.5), 100 mM NaCl, 0.5 mM EDTA, 0.05% Triton X-100, 2 mM DTT, 50% Glycerol. In this assay, reactions were carried out in the presence of 10 nM c-Met kinase and 5 uM myelin basic protein. The reaction was carried out at 30° C. for 120 minutes in a final assay condition contained 20 mM HEPES, pH 7.5, 10 mM MgCl2, 1 mM EGTA, 0.02% Brij 35, 0.02 mg/ml BSA, 0.1 mM Na3VO4, 2 mM DTT and 1 μM ATP. An equal volume of 25% TCA was added to stop the reaction and precipitate the labeled proteins. Precipitated proteins were trapped onto glass fiber B filterplates and excess unlabeled p33 ATP was washed off. The plates were allowed to air-dry prior to the addition of 30 uL/well of Packard Microscint 20. The amount of incorporated isotope was measured using a Perkin Elmer TopCount plate reader. Different concentrations of compounds were added to reaction to assess the activity of compounds to inhibit c-Met kinase. IC50 was calculated using Prism software with sigmoidal dose-response curve fitting.

Assay [2] concerns the target T2, human EGFR (Homo sapiens, UniProt P00533).
T2 construct: human EGFR (His672-Ala1210); purchased Cell Signaling Technologies; host or cells: baculovirus expression system
The assay can be described thus: EGFR kinase assay (HTScan EGF Receptor Kinase Assay Kit, DELFIA). The class given is biochemical. As to conditions: 200 μM ATP. How it is done: (e) An In Vitro Assay which Determines the Ability of a Test Compound to Inhibit EGFR Kinase.
The ability of compounds to inhibit receptor kinase (EGFR) activity was assayed using HTScan™ EGF Receptor Kinase Assay Kits (Cell Signaling Technologies, Danvers, Mass.). EGFR tyrosine kinase was obtained as GST-kinase fusion protein which was produced using a baculovirus expression system with a construct expressing human EGFR (His672-Ala1210) (GenBank Accession No. NM_005228) with an amino-terminal GST tag. The protein was purified by one-step affinity chromatography using glutathione-agarose. An anti-phosphotyrosine monoclonal antibody, P-Tyr-100, was used to detect phosphorylation of biotinylated substrate peptides (EGFR), Biotin-PTP1B (Tyr66). Enzymatic activity was tested in 60 mM HEPES, 5 mM MgCl2 5 mM MnCl2 200 μM ATP, 1.25 mM DTT, 3 μM Na3VO4, 1.5 mM peptide, and 50 ng EGF Receptor Kinase. Bound antibody was detected using the DELFIA system (PerkinElmer, Wellesley, Mass.) consisting of DELFIA® Europium-labeled Anti-mouse IgG (PerkinElmer, #AD0124), DELFIA® Enhancement Solution (PerkinElmer, #1244-105), and a DELFIA® Streptavidin coated, 96-well Plate (PerkinElmer, AAAND-0005). Fluorescence was measured on a WALLAC Victor 2 plate reader and reported as relative fluorescence units (RFU). Data were plotted using GraphPad Prism (v4.0a) and IC50's calculated using a sigmoidal dose response curve fitting algorithm.
Test compounds were dissolved in dimethylsulfoxide (DMSO) to give a 20 mM working stock concentration. Each assay was setup as follows: Added 100 μl of 10 mM ATP to 1.25 ml 6 mM substrate peptide. Diluted the mixture with dH2O to 2.5 ml to make 2×ATP/substrate cocktail ([ATP]=[…], [substrate]=3 mM). Immediately transfer enzyme from −80° C. to ice. Allowed enzyme to thaw on ice. Microcentrifuged briefly at 4° C. to bring liquid to the bottom of the vial. Returned immediately to ice. Added 10 μl of DTT (1.25 mM) to 2.5 ml of 4× HTScan™ Tyrosine Kinase Buffer (240 mM HEPES pH 7.5, 20 mM MgCl2, 20 mM MnCl, 12 mM NaVO3) to make DTT/Kinase buffer. Transfer 1.25 ml of DTT/Kinase buffer to enzyme tube to make 4× reaction cocktail ([enzyme]=4 ng/μL in 4× reaction cocktail). Incubated 12.5 μl of the 4× reaction cocktail with 12.5 μl/well of prediluted compound of interest (usually around 10 μM) for 5 minutes at room temperature. Added 25 μl of 2×ATP/substrate cocktail to 25 μl/well preincubated reaction cocktail/compound. Incubated reaction plate at room temperature for 30 minutes. Added 50 μl/well Stop Buffer (50 mM EDTA, pH 8) to stop the reaction. Transferred 25 μl of each reaction and 75 μl dH2O/well to a 96-well streptavidin-coated plate and incubated at room temperature for 60 minutes. Washed three times with 200 μl/well PBS/T (PBS, 0.05% Tween-20). Diluted primary antibody, Phospho-Tyrosine mAb (P-Tyr-100), 1:1000 in PBS/T with 1% bovine serum albumin (BSA). Added 100 μl/well primary antibody. Incubated at room temperature for 60 minutes. Washed three times with 200 μl/well PBS/T. Diluted Europium labeled anti-mouse IgG 1:500 in PBS/T with 1% BSA. Added 100 μl/well diluted antibody. Incubated at room temperature for 30 minutes. Washed five times with 200 μl/well PBS/T. Added 100 μl/well DELFIA® Enhancement Solution. Incubated at room temperature for 5 minutes. Detected 615 nm fluorescence emission with appropriate Time-Resolved Plate Reader.

The term IC50 denotes the point on the concentration scale where inhibition reaches its midpoint.

T2 sequence (P00533 672-1210): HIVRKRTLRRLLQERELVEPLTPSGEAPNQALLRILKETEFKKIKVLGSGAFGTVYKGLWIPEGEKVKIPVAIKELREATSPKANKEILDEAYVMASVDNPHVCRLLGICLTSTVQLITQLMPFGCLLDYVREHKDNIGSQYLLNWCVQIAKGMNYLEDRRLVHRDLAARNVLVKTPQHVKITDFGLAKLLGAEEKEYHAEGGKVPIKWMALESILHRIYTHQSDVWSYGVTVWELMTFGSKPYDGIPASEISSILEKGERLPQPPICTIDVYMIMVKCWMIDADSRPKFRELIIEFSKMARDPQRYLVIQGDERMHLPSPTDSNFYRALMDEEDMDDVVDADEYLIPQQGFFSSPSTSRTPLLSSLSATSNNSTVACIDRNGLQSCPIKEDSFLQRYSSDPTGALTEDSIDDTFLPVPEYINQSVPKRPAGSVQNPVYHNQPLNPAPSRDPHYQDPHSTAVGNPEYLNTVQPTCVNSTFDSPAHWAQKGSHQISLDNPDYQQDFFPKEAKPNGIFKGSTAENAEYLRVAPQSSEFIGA
T1 sequence (P08581 956-1390): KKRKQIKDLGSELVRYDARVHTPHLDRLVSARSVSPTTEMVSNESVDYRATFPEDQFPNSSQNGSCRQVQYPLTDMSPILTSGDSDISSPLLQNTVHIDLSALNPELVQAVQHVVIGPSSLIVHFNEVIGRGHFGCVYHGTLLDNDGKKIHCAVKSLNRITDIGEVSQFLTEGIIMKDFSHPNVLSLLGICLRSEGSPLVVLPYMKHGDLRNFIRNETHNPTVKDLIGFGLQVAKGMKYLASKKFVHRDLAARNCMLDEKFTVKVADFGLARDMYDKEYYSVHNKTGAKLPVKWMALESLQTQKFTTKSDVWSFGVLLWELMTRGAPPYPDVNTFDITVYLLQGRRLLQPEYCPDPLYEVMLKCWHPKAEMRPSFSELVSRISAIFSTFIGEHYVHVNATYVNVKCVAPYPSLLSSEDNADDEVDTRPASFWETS

In the case of `COc1cc2c(Nc3ccc4[nH]c(C)cc4c3F)ncnc2cc1OCCCCCCC(=O)NO` [Compound 14, 7-(4-(4-fluoro-2-methyl-1H-indol-5-ylamino)-6-methoxy-quinazolin-7-yloxy)-N-hydroxyheptanamide], the half-inhibitory concentration (IC50) in assay [1] is 1 to 10 µM; in assay [2], less than 0.1 µM. Compound `COc1cc2ncnc(Nc3ccc4occc4c3)c2cc1OCCCCCCC(=O)NO` [Compound 2, 7-(4-(benzofuran-5-ylamino)-7-methoxyquinazolin-6-yloxy)-N-hydroxyheptanamide] yielded an IC50 in assay [2] of less than 0.1 µM. Turning to `Cc1cc2c(F)c(Oc3ncnc4cc(OCCCN5CCCC5)c(OCCCCCC(=O)NO)cc34)ccc2[nH]1` [Compound 16, 6-(4-(4-fluoro-2-methyl-1H-indol-5-yloxy)-7-(3-(pyrrolidin-1-yl)propoxy)quinazolin-6-yloxy)-N-hydroxyhexanamide], the values for the 50% inhibitory concentration (IC50) in assay [1] and in assay [2] were 0.1 to 1 µM and 1 to 10 µM, respectively. The like results for `Cc1cc2c(F)c(Nc3ncnc4cc(OCCCN5CCCC5)c(OCCCCCCC(=O)NO)cc34)ccc2[nH]1` [Compound 20, 7-(4-(4-Fluoro-2-methyl-1H-indol-5-ylamino)-7-(3-(pyrrolidin-1-yl)propoxy)quinazolin-6-yloxy)-N-hydroxyheptanamide] were, in that order, 1 to 10 µM and 1 to 10 µM.

The compound `COc1cc2c(Nc3ccc4[nH]c(C)cc4c3F)ncnc2cc1OCCCCCC(=O)NO` [Compound 13, 6-(4-(4-fluoro-2-methyl-1H-indol-5-ylamino)-6-methoxyquinazolin-7-yloxy)-N-hydroxyhexanamide] returned an IC50 in assay [2] of 0.1 to 1 µM. `COc1cc2c(Oc3ccc4[nH]c(C)cc4c3F)ncnc2cc1OCCCCCCC(=O)NO` [Compound 11, 7-(4-(4-fluoro-2-methyl-1H-indol-5-yloxy)-6-methoxyquinazolin-7-yloxy)-N-hydroxyheptanamide]: the half-inhibitory concentration (IC50) in assay [1] and in assay [2] was 1 to 10 µM in each case.

Compound `Cc1cc2c(F)c(Nc3ncnc4cc(OCCCN5CCCC5)c(OCCCCC(=O)NO)cc34)ccc2[nH]1` [Compound 18, 5-(4-(4-fluoro-2-methyl-1H-indol-5-ylamino)-7-(3-(pyrrolidin-1-yl)propoxy)quinazolin-6-yloxy)-N-hydroxypentanamide] gave a half-maximal inhibitory concentration (IC50) in assay [2] of 0.1 to 1 µM. For the compound `COc1cc2c(Oc3ccc4[nH]c(C)cc4c3F)ncnc2cc1OCCCCCC(=O)NO` [Compound 10, 6-(4-(4-fluoro-2-methyl-1H-indol-5-yloxy)-6-methoxyquinazolin-7-yloxy)-N-hydroxyhexanamide], the IC50 in assay [1] is 1 to 10 µM; in assay [2] it was 0.1 to 1 µM. Taken in the same sequence, the figures for `Cc1cc2c(F)c(Oc3ncnc4cc(OCCCN5CCCC5)c(OCCCCCCC(=O)NO)cc34)ccc2[nH]1` [Compound 17] were less than 0.1 µM and 1 to 10 µM.

For the compound `Cc1cc2c(F)c(Nc3ncnc4cc(OCCCN5CCCC5)c(OCCCCCC(=O)NO)cc34)ccc2[nH]1` [Compound 19, 6-(4-(4-Fluoro-2-methyl-1H-indol-5-ylamino)-7-(3-(pyrrolidin-1-yl)propoxy)quinazolin-6-yloxy)-N-hydroxyhexanamide], the 50% inhibitory concentration (IC50) in assay [2] is less than 0.1 µM.
